Results on three compounds are retold here after patent US20070077279A1, “Novel compositions containing polyphenols” (DSM IP Assets B.V., priority 2005, published 2007).

Holding throughout (assay type): physicochemical
A short description of data set [1]: Storage test of chewable tablets under accelerated conditions (40° C./75% relative humidity) in closed polypropylene tubes. Conditions: chewable tablets of Example 2; for Initial Assay, vitamin/polyphenol in mg/tablet: 40° C./75% relative humidity study; for Vitamin/polyphenol in mg/tablet, 1 month 40° C. / Vitamin/polyphenol in mg/tablet, 2 months 40° C. / Vitamin/polyphenol in mg/tablet, 3 months 40° C.: 40° C./75% relative humidity.

Data set [2] is described as follows: Storage test of chewable tablets at room temperature (25° C./60% relative humidity) in closed polypropylene tubes. Particulars: for Vitamin/polyphenol in mg/tablet, 1 month: chewable tablets of Example 2, 1 month; for Vitamin/polyphenol in mg/tablet, 2 months: chewable tablets of Example 2, 2 months; for Vitamin/polyphenol in mg/tablet, 3 months: chewable tablets of Example 2, 3 months; for Vitamin/polyphenol in mg/tablet, 6 months: chewable tablets of Example 2, 6 months; for Vitamin/polyphenol in mg/tablet, 12 months: chewable tablets of Example 2, 12 months.

A short description of data set [3]: Storage test of lozenges under accelerated conditions (40° C./75% relative humidity) in closed polypropylene tubes. Conditions: lozenges of Example 1; for Initial Assay, vitamin/polyphenol in mg/tablet: 40° C./75% relative humidity study; for Vitamin/polyphenol in mg/tablet, 1 month 40° C. / Vitamin/polyphenol in mg/tablet, 2 months 40° C. / Vitamin/polyphenol in mg/tablet, 3 months 40° C.: 40° C./75% relative humidity.

A short description of data set [4]: Storage test of lozenges at room temperature (25° C./60% relative humidity) in closed polypropylene tubes. Particulars: for Vitamin/polyphenol in mg/tablet, 1 month: lozenges of Example 1, 1 month; for Vitamin/polyphenol in mg/tablet, 2 months: lozenges of Example 1, 2 months; for Vitamin/polyphenol in mg/tablet, 3 months: lozenges of Example 1, 3 months; for Vitamin/polyphenol in mg/tablet, 6 months: lozenges of Example 1, 6 months; for Vitamin/polyphenol in mg/tablet, 12 months: lozenges of Example 1, 12 months; for Vitamin/polyphenol in mg/tablet, 18 months: lozenges of Example 1, 18 months; for Vitamin/polyphenol in mg/tablet, 24 months: lozenges of Example 1, 24 months.

The mark [5] stands for this setting: chewable tablets of Example 2, initial.
The mark [6] stands for this setting: chewable tablets of Example 2, initial (Table 4).
The mark [7] stands for this setting: lozenges of Example 1, initial (Table 2).

Take `O=C(O[C@@H]1Cc2c(O)cc(O)cc2O[C@@H]1c1cc(O)c(O)c(O)c1)c1cc(O)c(O)c(O)c1` [EGCG, epigallocatechin gallate]: in data set [1], the “Initial Assay, vitamin/polyphenol in mg/tablet” value is reported as 23.8 mg; the “Vitamin/polyphenol in mg/tablet, 1 month 40° C.” value is 24.8 mg; the “Vitamin/polyphenol in mg/tablet, 2 months 40° C.” value amounted to 23.2 mg; the “Vitamin/polyphenol in mg/tablet, 3 months 40° C.” value was found to be 23.2 mg. In data set [2], the “Vitamin/polyphenol in mg/tablet, 1 month” value is recorded as 23.0 mg; the “Vitamin/polyphenol in mg/tablet, 2 months” value came to 23.8 mg; the “Vitamin/polyphenol in mg/tablet, 3 months” value was 24.1 mg; the “Vitamin/polyphenol in mg/tablet, 6 months” value came out at 23.7 mg. The “Vitamin/polyphenol in mg/tablet, 12 months” value in data set [2] was 22.6 mg. Further, the “Initial Assay, vitamin/polyphenol in mg/tablet” value in data set [2] (setting [5]) came out at 23.8 mg. In addition, the “Initial Assay, vitamin/polyphenol in mg/tablet” value in data set [2] (setting [6]) was 23.8 mg. Besides, in data set [3], the “Initial Assay, vitamin/polyphenol in mg/tablet” value is listed as 11.9 mg; the “Vitamin/polyphenol in mg/tablet, 1 month 40° C.” value amounted to 11.8 mg; the “Vitamin/polyphenol in mg/tablet, 2 months 40° C.” value came out at 11.4 mg; the “Vitamin/polyphenol in mg/tablet, 3 months 40° C.” value was 10.6 mg. Also, in data set [4], the “Vitamin/polyphenol in mg/tablet, 1 month” value came out at 11.8 mg; the “Vitamin/polyphenol in mg/tablet, 2 months” value is 10.9 mg; the “Vitamin/polyphenol in mg/tablet, 3 months” value is reported as 11.0 mg; the “Vitamin/polyphenol in mg/tablet, 6 months” value was 10.6 mg. Further, in data set [4], the “Vitamin/polyphenol in mg/tablet, 12 months” value was determined as 11.6 mg; the “Vitamin/polyphenol in mg/tablet, 18 months” value was found to be 12.0 mg; the “Vitamin/polyphenol in mg/tablet, 24 months” value is given as 11.3 mg. Further, the “Initial Assay, vitamin/polyphenol in mg/tablet” value in data set [4] (lozenges of Example 1, initial) was found to be 11.9 mg. For the same compound, the “Initial Assay, vitamin/polyphenol in mg/tablet” value in data set [4] (setting [7]) amounted to 11.9 mg.
Regarding `O=C1O[C@H]([C@@H](O)CO)C(O)=C1O` [Vit C, Ascorbic Acid], in data set [1], the “Initial Assay, vitamin/polyphenol in mg/tablet” value turned out to be 33.7 mg; the “Vitamin/polyphenol in mg/tablet, 1 month 40° C.” value was found to be 31.8 mg; the “Vitamin/polyphenol in mg/tablet, 2 months 40° C.” value is listed as 32.4 mg; the “Vitamin/polyphenol in mg/tablet, 3 months 40° C.” value came out at 33.6 mg. Also, in data set [2], the “Vitamin/polyphenol in mg/tablet, 1 month” value was 32.3 mg; the “Vitamin/polyphenol in mg/tablet, 2 months” value is recorded as 33.3 mg; the “Vitamin/polyphenol in mg/tablet, 3 months” value was determined as 36.1 mg; the “Vitamin/polyphenol in mg/tablet, 6 months” value turned out to be 32.5 mg. In addition, the “Vitamin/polyphenol in mg/tablet, 12 months” value in data set [2] is listed as 33.0 mg. Also, in data set [2] (setting [5]), the “Initial Assay, vitamin/polyphenol in mg/tablet” value was determined as 33.7 mg. Moreover, the “Initial Assay, vitamin/polyphenol in mg/tablet” value in data set [2] (setting [6]) was determined as 33.7 mg. Moreover, in data set [3], the “Initial Assay, vitamin/polyphenol in mg/tablet” value stood at 12.2 mg; the “Vitamin/polyphenol in mg/tablet, 1 month 40° C.” value stood at 11.2 mg; the “Vitamin/polyphenol in mg/tablet, 2 months 40° C.” value is reported as 11.1 mg; the “Vitamin/polyphenol in mg/tablet, 3 months 40° C.” value is 11.2 mg. In data set [4], the “Vitamin/polyphenol in mg/tablet, 1 month” value worked out at 11.4 mg; the “Vitamin/polyphenol in mg/tablet, 2 months” value worked out at 12.2 mg; the “Vitamin/polyphenol in mg/tablet, 3 months” value came to 11.3 mg; the “Vitamin/polyphenol in mg/tablet, 6 months” value turned out to be 12.3 mg. Besides, in data set [4], the “Vitamin/polyphenol in mg/tablet, 12 months” value was 12.1 mg; the “Vitamin/polyphenol in mg/tablet, 18 months” value is given as 12.0 mg; the “Vitamin/polyphenol in mg/tablet, 24 months” value stood at 11.9 mg. The “Initial Assay, vitamin/polyphenol in mg/tablet” value in data set [4] (lozenges of Example 1, initial) is given as 12.2 mg. Also, in data set [4] (setting [7]), the “Initial Assay, vitamin/polyphenol in mg/tablet” value is 12.2 mg.
On to `CC(=O)Oc1c(C)c(C)c2c(c1C)CCC(C)(CCC[C@H](C)CCC[C@H](C)CCCC(C)C)O2` (stereo partly drawn) [Vit E, Tocopherol Acetate], for which, in data set [1], the “Initial Assay, vitamin/polyphenol in mg/tablet” value is on record as 8.3 mg; the “Vitamin/polyphenol in mg/tablet, 1 month 40° C.” value is recorded as 8.7 mg; the “Vitamin/polyphenol in mg/tablet, 2 months 40° C.” value is reported as 8.5 mg; the “Vitamin/polyphenol in mg/tablet, 3 months 40° C.” value stood at 8.5 mg. Also, in data set [2], the “Vitamin/polyphenol in mg/tablet, 1 month” value was 8.4 mg; the “Vitamin/polyphenol in mg/tablet, 2 months” value came out at 8.5 mg; the “Vitamin/polyphenol in mg/tablet, 3 months” value is 8.6 mg; the “Vitamin/polyphenol in mg/tablet, 6 months” value is 8.3 mg. The “Vitamin/polyphenol in mg/tablet, 12 months” value in data set [2] is listed as 8.6 mg. The “Initial Assay, vitamin/polyphenol in mg/tablet” value in data set [2] (setting [5]) came to 8.3 mg. Also, the “Initial Assay, vitamin/polyphenol in mg/tablet” value in data set [2] (setting [6]) is 8.3 mg. Further, in data set [3], the “Initial Assay, vitamin/polyphenol in mg/tablet” value came to 1.6 mg; the “Vitamin/polyphenol in mg/tablet, 1 month 40° C.” value amounted to 1.6 mg; the “Vitamin/polyphenol in mg/tablet, 2 months 40° C.” value is 1.6 mg; the “Vitamin/polyphenol in mg/tablet, 3 months 40° C.” value is 1.8 mg. Moreover, in data set [4], the “Vitamin/polyphenol in mg/tablet, 1 month” value is 1.7 mg; the “Vitamin/polyphenol in mg/tablet, 2 months” value is listed as 1.7 mg; the “Vitamin/polyphenol in mg/tablet, 3 months” value is listed as 1.8 mg; the “Vitamin/polyphenol in mg/tablet, 6 months” value is reported as 1.6 mg. Besides, in data set [4], the “Vitamin/polyphenol in mg/tablet, 12 months” value was 1.5 mg; the “Vitamin/polyphenol in mg/tablet, 18 months” value was 1.6 mg; the “Vitamin/polyphenol in mg/tablet, 24 months” value came out at 1.7 mg. In data set [4] (lozenges of Example 1, initial), the “Initial Assay, vitamin/polyphenol in mg/tablet” value worked out at 1.6 mg. Also, the “Initial Assay, vitamin/polyphenol in mg/tablet” value in data set [4] (setting [7]) is 1.6 mg.
